Experimental data as given in publication PMC5030704 (Scientific Reports, 2016).

The compounds below were run against T1, TNIK (Homo sapiens, UniProt Q9UKE5) (assay: KINOMEscan competition binding (immobilised reference ligand, qPCR)). Details: read-out: % Ctrl / 10 μM.
T1 construct: kinase domain, DNA-tagged, KINOMEscan commercial panel
Source text: KINOMEscan competition binding (immobilised reference ligand, qPCR) on TNIK

T1 sequence (Q9UKE5 25-289 limits assumed): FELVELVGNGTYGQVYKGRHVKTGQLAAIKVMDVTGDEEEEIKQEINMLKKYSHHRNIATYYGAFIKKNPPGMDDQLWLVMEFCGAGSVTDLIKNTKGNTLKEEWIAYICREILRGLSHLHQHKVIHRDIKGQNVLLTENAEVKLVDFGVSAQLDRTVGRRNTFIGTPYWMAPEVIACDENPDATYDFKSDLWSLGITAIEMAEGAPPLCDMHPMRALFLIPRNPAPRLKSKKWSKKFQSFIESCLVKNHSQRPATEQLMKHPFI

**Q.** For `Cc1nc(Nc2ncc(C(=O)Nc3c(C)cccc3Cl)s2)cc(N2CCN(CCO)CC2)n1` [Dasatinib], which remaining binding at 10 µM is on record?
**A.** 11%

**Q.** For `CN1CC[C@H](c2c(O)cc(O)c3c(=O)cc(-c4ccccc4Cl)oc23)[C@H](O)C1` [Flavopiridol], which remaining binding at 10 µM is on record?
**A.** 33%

**Q.** For `COC(=O)Nc1nc2cc(C(=O)c3ccccc3)ccc2[nH]1` [Mebendazole], which remaining binding at 10 µM is on record?
**A.** 8.2%
